Data: ChEMBL document CHEMBL5252556, “Fuligopyrones from the Fruiting Bodies of Myxomycete Fuligo septica Offer Short-Term Protection from Abiotic Stress Induced by UV Radiation” (J Nat Prod, 2023)

Experiments:
[1] = test system: Eragrostis tef; assay: Herbicidal activity against Eragrostis tef seed measured after 24 hrs; settings: in Eragrostis tef
[2] = Cytotoxicity against mouse NS-1 cells measured after 72 hrs; assay type: toxicity, cell-based
[3] = test system: Candida albicans; assay: Antifungal activity against Candida albicans ATCC 10231 measured after 24 hrs; assay type: functional
[4] = test system: Tritrichomonas foetus; assay: Anti-protozoal Tritrichomonas foetus KV-1 measured after 24 hrs; assay type: functional
[5] = Cytotoxicity against […] NFF measured after 72 hrs; assay type: toxicity, cell-based; settings: NFF cells
[6] = test system: Saccharomyces cerevisiae; assay: Antifungal activity against Saccharomyces cerevisiae ATCC 9763 measured after 24 hrs; assay type: functional
[7] = test system: Staphylococcus aureus; assay: Antibacterial activity against Staphylococcus aureus ATCC 25923 measured after 24 hrs; assay type: functional
[8] = test system: Bacillus subtilis; assay: Antibacterial activity against Bacillus subtilis ATCC 6633 measured after 24 hrs; assay type: functional

| Compound | MIC [1] | IC50 at 72 h [2] | MIC [3] | LD99 [4] | IC50 at 72 h [5] | MIC [6] | MIC [7] | MIC [8] |
| --- | --- | --- | --- | --- | --- | --- | --- | --- |
| O=C(/C=C/C=C/c1ccc(O)cc1)NCCc1cc(O)c(Cl)c(=O)o1 | > 100 µg/mL | > 200 µM | > 200 µg/mL | >100 µg/mL | > 200 µM | > 200 µg/mL | > 100 µg/mL | > 100 µg/mL |
| O=C(/C=C/C=C/c1ccc(O)cc1)NCCc1cc(O)cc(=O)o1 | > 100 µg/mL | > 200 µM | > 200 µg/mL | >100 µg/mL | > 200 µM | > 200 µg/mL | > 100 µg/mL | > 100 µg/mL |
